A short description of series [1]: Stability of bulk salt and solutions on standing. Type of series: physicochemical. The source says:
The precipitates were identified by NMR and x-ray crystallography to be pure artelinic acid.
Feasibility of using preformed AL salts with three basic amino acids, L-lysine, L-arginine or L-histidine for AL intravenous formulation were studied. The basicity of histidine is too weak to form water soluble AL-histidine salt. […] Therefore, L-lysine was deemed the most feasible.
AL/LY is soluble in water, saline, glucose solution or any IV injectable (neutral or basic) water solution. […] Therefore, for practical purpose, the preferred vehicle for intravenous injection is a normal saline or 5% glucose solution containing 0.1-0.5% L-lysine. The final osmolarity is around 290 mosm/kg.

The conditions of series [2]: cited from earlier work; for CNS toxicity versus oil soluble analogs such as artemether and arteether: rats and dogs; for CNS toxicity: chronically dosed rats and dogs.
For another series, the system named is P. berghei. Particulars: administered orally; cited from earlier work.
For series [3] the following is noted: in vivo; cited from earlier work.
How the values of series [4] were obtained:
The most commonly used water soluble salt for acidic drugs is sodium salt. The sodium salt of artelinic acid was prepared in our laboratory by dissolving artelinic acid in a slightly less than one equivalent mole of sodium hydroxide solution. The slight excess amount of insoluble artelinic acid was removed by extraction of the mixture with diethyl ether. The aqueous layer was evaporated under reduced pressure using a rotary evaporator to remove the small amount of volatile diethyl ether, and then lyophilized to give sodium artelinate as a white powder.

The subject of another series is P. knowlesi. Particulars: rhesus monkeys, 15 mg/kg×3 days; cited from earlier work.
The next series concerns P. coatneyi malaria. Nature of the series: AL/LY Efficacy in Uncomplicated Malaria (rhesus). The class given is in vivo. The settings on record: control animal, 7 days of IM BID. As for the experimental part: 1. AL/LY Efficacy in Uncomplicated Malaria (done with PK trial)
i. 10 splenectomized rhesus with mild P. coatneyi malaria (mean parasitemia 773K/μl or 11.8%) and one quinine control (773K/μl or 13.5%). All asymptomatic.
ii. 11.8 mg/kg loading dose given IV push over 3 minutes, then 5.9 mg/kg for 2 days

The next series has as its system severe malaria. Put plainly: Efficacy in Severe Malaria (rhesus). The class given is in vivo.
The conditions of series [5]: aqueous solution made in 5% sodium bicarbonate; cited from earlier work.
A short description of series [6]: Intravenous toxicity and tolerance in rat. Type of series: in vivo. The settings on record: in 5% sodium carbonate vehicle. From the text:
Although a ready-to-use intravenous solution in a multiple dose vial is a convenient and preferable formulation, current formulation of dissolving preformed AL/LY salt in 0.3% of L-lysine/saline solution prior to administration has been used satisfactorily to assess the efficacy and toxicity of AL in rat, Aotus and Rhesus monkey models.

With `CC1CCC2C(C)C(OCc3ccc(C(=O)O)cc3)OC3OC4(C)CCC1C32OO4.N=C(N)NCCCC(N)C(=O)O` (stereo not shown) [AL-arginine salt], in [1] (room temperature, within two days to one week), the “colour of aqueous solution on standing” value was “turned to deep red color”.

Turning to `C[C@H]1[C@H](OC(=O)CCC(=O)O)O[C@@H]2O[C@@]3(C)CC[C@H]4[C@H](C)CC[C@@H]1[C@@]24OO3` [AS, artesunic acid], the “CNS toxicity versus oil soluble analogs such as artemether and arteether” value in series [2] was “substantially less CNS toxicity”.

Regarding `C[C@H]1[C@@H](OCc2ccc(C(=O)[O-])cc2)O[C@@H]2O[C@]3(C)CC[C@H]4[C@H](C)CC[C@@H]1[C@@]24OO3.[Na+]` [Na-AL, Sodium artelinate], the “time the solution stayed clear” value in series [1] (in sodium carbonate 0.1 to 0.5%, depending on concentration) is “from one week to one month”. The “appearance of freshly prepared aqueous solution on standing” value in [1] (room temperature) is given as “turned turbidity”. The “decomposition product on standing” value in series [1] (room temperature for three months) is “No decomposition product was detected”. For the same compound, the “crystal formation on longer standing” value in series [1] (sodium carbonate solutions, room temperature, longer period, free artelinic acid) was “crystallized out from all solutions”. For the same compound, in the series on P. berghei, the efficacy entry is “highly effective”. Further, the plasma half-life in [3] is 90 to 180 min. In series [4], the “solubility in distilled water” value was “does not dissolve completely”, the “solubility in sodium carbonate solution” value is on record as “very soluble” and the water solubility was greater than 60 mg/mL. Moreover, the cure of infection entry in the series on P. knowlesi is on record as “complete cures”.

Turning to `CCO[C@H]1O[C@@H]2O[C@@]3(C)CC[C@H]4[C@H](C)CC[C@@H]([C@H]1C)[C@@]24OO3` [arteether, Arteether], the “plasma half-life” value in [3] was “short plasma half-life”. For the same compound, in series [2], the CNS toxicity entry is listed as “fatal CNS toxicity”.

Consider `CO[C@H]1O[C@@H]2O[C@@]3(C)CC[C@H]4[C@H](C)CC[C@@H]([C@H]1C)[C@@]24OO3` [artemether, Artemether], for which the “plasma half-life” value in [3] was “short plasma half-life”. Further, the CNS toxicity entry in [2] is listed as “fatal CNS toxicity”.

`C=C[C@H]1C[N@@]2CC[C@H]1C[C@H]2[C@H](O)c1ccnc2ccc(OC)cc12` [quinine]: the “day on which parasitemia cleared” value in the series on P. coatneyi malaria is 8 days. In the series with severe malaria (IM BID for 7 days), the cure entry is “all cured”; the “parasitemia cleared, mean time” value is reported as 5.6 days; the “time to resolution of severe malaria symptoms” value came to 3 days. Besides, in the series on severe malaria (IM BID for 7 days, controls (4 of 5)), the survived was determined as 80%. For the same compound, the died in the series on severe malaria (therapy delayed 24 hours) is recorded as 50%.

For `C[C@H]1[C@H](OC(=O)CCC(=O)[O-])O[C@@H]2O[C@@]3(C)CC[C@H]4[C@H](C)CC[C@@H]1[C@@]24OO3.[Na+]` [sodium artesunate, Sodium artesunate], the plasma half-life in [3] is 20 to 30 min. Besides, the “time within which dihydroartemisinin precipitates out from unused solution” value in series [5] was 2 to 3 h.

As a reminder, the LD50 is the dose expected to kill half of the subjects tested. Low values mean a more toxic substance, high ones a less toxic substance. As for artelinic acid [AL], the figures for the LD50 in series [6] (female rat) and in series [6] (male rat) were 50 mg/kg and 67 mg/kg, respectively. Moreover, the “water solubility” value in series [4] is on record as “not water soluble”. In series [2], the “CNS toxicity versus oil soluble analogs such as artemether and arteether” value is “substantially less CNS toxicity”.
